Measured values published in patent publication US20080194529A1 (AUSPEX PHARMACEUTICALS, INC., priority 2007, published 2008).

How the values were obtained:
[1] = cited from earlier work
[2] = type: in vitro ADME; details: topical or ocular, 5 microgram per mL
Method: Liver microsomal stability assays were conducted at 1 mg per mL liver microsome protein with an NADPH-generating system in 2% NaHCO3 (2.2 mM NADPH, 25.6 mM glucose 6-phosphate, 6 units per mL glucose 6-phosphate dehydrogenase and 3.3 mM MgCl2). Test compounds were prepared as solutions in 20% acetonitrile-water and added to the assay mixture (final assay concentration 5 microgram per mL) and incubated at 37° C. Final concentration of acetonitrile in the assay were <1%. Aliquots (50 μL) were taken out at times 0, 15, 30, 45, and 60 minutes, and diluted with ice cold acetonitrile (200 μL) to stop the reactions. Samples were centrifuged at 12000 RPM for 10 minutes to precipitate proteins. Supernatants were transferred to microcentrifuge tubes and stored for LC/MS/MS analysis of the degradation half-life of the test compounds.

Row | SMILES | side effects of chromatopsia, such as sensitivity to light and blurred vision, in patients taking the drug [1] [%] | increase in the degradation half-life as compared to the non-isotopically enriched drug (udenafil) [2]
1 | CN1CC(=O)N2[C@H](c3ccc4c(c3)OCO4)c3[nH]c4ccccc4c3C[C@@H]2C1=O [tadalafil] | < 0.1 | 
2 | [2H]C([2H])(CC)c1nn(C)c2c(=O)[nH]c(-c3cc(S(=O)(=O)NCCC4CCCN4C)ccc3OCCC)nc12 (stereo not drawn) [Example 5, d2-3-(1-Methyl-7-oxo-3-propyl-6,7-dihydro-1H-pyrazolo[4,3-d]pyrimidin-5-yl)-N-[2-(1-methyl-pyrrolidin-2-yl)-ethyl]-4-propoxy-benzenesulfonamide] |  | 12-15%
3 | [2H]C([2H])(CC)c1nn(C([2H])([2H])[2H])c2c(=O)[nH]c(-c3cc(S(=O)(=O)NCCC4CCCN4C)ccc3OCCC)nc12 (stereo not drawn) [Example 4, d5-3-(1-Methyl-7-oxo-3-propyl-6,7-dihydro-1H-pyrazolo[4,3-d]pyrimidin-5-yl)-N-[2-(1-methyl-pyrrolidin-2-yl)-ethyl]-4-propoxy-benzenesulfonamide] |  | 12-15%
